Data from patent US20150071856A1, “ANTAGONISTIC PEPTIDES FOR FRIZZLED-1 AND FRIZZLED-2” (Universiteit Maastricht, priority 2013, published 2015).
Entries after “also recorded” stand apart in the source; their conditions may differ. Residues, ends and D or L forms follow the SMILES beside them.

Key:
infarct rupture = experiment: Infarct rupture in 12956 mice treated with UM206; type: in vivo; details: infarct rupture frequency ˜60%; unpublished observations
From the text: Because of the lack of pharmacological tools to intervene in Wnt/Fzd signaling in vivo, only genetic interventions have been reported so far in studies on the role of Wnt signaling in infarct healing. Barandon et al. were the first to show a beneficial effect of overexpression on infarct healing of FrzA, a bovine homologue of soluble frizzled-related protein-1 (sFRP1). They observed a decreased infarct size with elevated numbers of myofibroblasts and increased angiogenesis in the infarcted FrzA transgenic mice (Barandon et al., 2003), which could be confirmed in the present study using an Fzd-1 and -2 antagonist. […] In the mean time, the beneficial effects of sFRP overexpression on infarct healing have been confirmed by Kobayashi et al. (Kobayashi et al., 2009). Taken together, these reports support the observations of the present study and point to a beneficial effect of inhibiting Wnt/Fzd signaling on the wound-healing process after MI.

myocardial infarction = experiment: Hemodynamic measurements (Millar catheter, left ventricle) of mice after myocardial infarction; type: in vivo; details: UM206-treated groups post-MI
Method: Cardiac function was further assessed using a Millar pressure recording catheter inserted into the left ventricle. […] These observations further underscore the beneficial effect of UM206 treatment on cardiac function post-MI.
The animals were anaesthetized with urethane ([…], i.p., Sigma-Aldrich) followed by intubation and connected to a rodent ventilator (Hugo Sachs, March-Hugstetten, Germany). Body temperature was maintained at 37° C. The mice were then allowed to stabilize prior to hemodynamic measurements. A high-fidelity catheter tip micromanometer (Mikro-tip1.4F, SPR-671; Millar Instruments, Houston Tex., USA) was inserted through the right carotid artery into the left ventricular cavity. Ventricular pressure was measured. Maximal positive and negative pressure development (+dP/dt and −dP/dt) and heart rate were determined on a beat-to-beat basis. The heart was then stimulated by an i.v. ramp-infusion of dobutamine (Sigma-Aldrich) using a micro-injection pump (Model 200 Series, KdScientific, Boston, Mass., USA).

frizzled-1 (rFzd-1) = biological target: T1, frizzled-1 (rFzd-1) (Rattus norvegicus, UniProt Q08463); experiment: Activity assay: luciferase reporter in HEK superTOPflash cells transfected with frizzled-1; type: cell-based
T1 construct: expressed in transfected cells; host or cells: HEK293 superTOPflash (transient, Fugene6, pcDNA3.1/hygro)
Method: Human embryonic kidney (HEK) cells were used for screening. These cells have a luciferase construct stably transfected into the genome (see FIG. 2A), such that when the frizzled receptor is activated and β-catenin is increased, the luciferase is activated by transcription and light can be measured.
The peptides were tested by transfecting the frizzled-1 or the frizzled-2 receptor and addition of UM206(S-S) to the cell culture. For testing antagonistic activity, UM206 was added and the natural ligand Wnt3a was added, which is a natural stimulus for the canonical pathway.
Day 2: Transfection 12-Well Plates • heat Fugene6 and DNA 15 minutes at RT • 2 ml serum-free medium in tube • add 3 μl fugene • add 2 μg DNA • incubate 30 minutes at RT • wash with PBS • add 50 μl transfectiemix • add 1 ml antibiotica-free medium
Day 3: Add Conditioned Medium or UM206
Day 4: Luciferase Activity Measurements • remove medium • wash with PBS • add 500 μl ⅕ lysisbuffer • shake for 60 minutes • centrifuge in tube • 20 μl lysaat and 50 μl luciferase in new tube for measurement • vortex • measure
Three areas of high homology that contained two cysteines are underlined (UM207), (UM208) and (UM206). In FIGS. 9B through 9D, the inhibitory effect of these three peptides on Wnt3a-induced luciferase activity in HEK293-superTOPflash is shown. […] Again, the peptides by themselves had no effect on the luciferase activity.
To determine the inhibitory constant of UM206-8, HEK293-superTOPflash cells were transfected with either rFzd-1 or -2 and incubated with Wnt3a (10^−9M) in the presence of increasing concentrations of either of the peptides (FIG. 15). For UM206, a biphasic inhibition curve was observed that was best fitted with a two-binding-state model.
The cell lines were cultured in 75 cm^2 culture flasks (Corning, Schiphol, the Netherlands) in Dulbeco's modified essential medium with L-glutamine (2 mM), 10% fetal calf serum (Invitrogen, Merelbeke, Belgium), and 1% gentamycin (Sigma-Aldrich, Zwijndrecht, The Netherlands). Before starting the experiment, the cell lines were treated with plasmocin 25 μg/ml (Invivogen, Toulose, France) and tested with a mycoalert mycoplasma detection kit (Lonza, Rockland Me., USA). Cells were transiently transfected with Fugene6 (Roche, Indianapolis Ind., USA) with plasmid DNA, pcDNA3.1/hygro (Invitrogen) with frizzled-1/2/4 or Wnts 3a-5a or with pcDNA3.0 (Invitrogen) containing the β-catenin or frizzled-5 sequence. After transfection, the cells were cultured for 24 hours in conditioned medium, collected from the cultured L-cells, L-cells with Wnt3a or 5a (Invitrogen). At the same moment the antagonist was added.

infarct area = experiment: Histological, qPCR and Western blot analysis of the infarct area in mice; type: in vivo
From the text: This was confirmed by histological analysis of the infarct area.
RNA was isolated using the Trizol method (Invitrogen). For the RT-PCR, the RNA was transcribed to cDNA with Iscript™ cDNA synthesis kit (Bio-Rad, Hercules Calif., USA), Syber green (Eurogentec, Ghent, Belgium) was used for the detection of cDNA levels and cyclophilin served as the house keeping gene. In Supplementary methods panel 5, the primer sequences are shown.
For Western blot, cells were homogenized in ice-cold Laemmli buffer and protein content was measured using the BCA protein assay (Pierce Biotechnology Inc., Rockford Ill., USA); proteins were denatured by boiling, separated on a 10% SDS-page gel, and transferred onto a Hybond C nitrocellulose membrane (Amersham Biosciences, Little Chalfont, United Kingdom). After blocking, membranes were incubated overnight at 4° C. with primary antibodies against β-catenin, α-SMA (both 1:2000, BD Biosciences, Franklin Lakes N.J., USA) or β-actin (1:2000 Sigma-Aldrich). Anti-mouse immunoglobulin G 1/5000 (Vector Labs Inc.) was used as the secondary antibody, and the membranes were developed using the Supersignal West Pico chemiluminescence kit (Pierce). Images of the blots were analyzed with image analysis software (Qwin Leica, Cambridge, United Kingdom).
One-half of the hearts of the mice was embedded in paraffin and cut in 4 μm sections. The paraffin sections were rehydrated and washed in PBS. One section was stained with AZAN, allowing an accurate determination of the infarct size. To visualize the myofibroblasts in the infarct area, the sections were incubated with an antibody directed against α-smooth muscle actin (Sigma-Aldrich), followed by incubation with the peroxidase-conjugated secondary antibody (Vector laboratories). Nuclei were visualized by hematoxylin. Photos were taken with a Leica (CTR500, 63×/0.85) camera and analyzed with the Quantimet program (QWin/QGo). An examiner blinded to the groups of the animals obtained all measurements. For the experiments with Rhodamine-labeled UM206, frozen sections (4 μm) of mouse kidney and small intestine were used.

T1 sequence (Q08463 69-641): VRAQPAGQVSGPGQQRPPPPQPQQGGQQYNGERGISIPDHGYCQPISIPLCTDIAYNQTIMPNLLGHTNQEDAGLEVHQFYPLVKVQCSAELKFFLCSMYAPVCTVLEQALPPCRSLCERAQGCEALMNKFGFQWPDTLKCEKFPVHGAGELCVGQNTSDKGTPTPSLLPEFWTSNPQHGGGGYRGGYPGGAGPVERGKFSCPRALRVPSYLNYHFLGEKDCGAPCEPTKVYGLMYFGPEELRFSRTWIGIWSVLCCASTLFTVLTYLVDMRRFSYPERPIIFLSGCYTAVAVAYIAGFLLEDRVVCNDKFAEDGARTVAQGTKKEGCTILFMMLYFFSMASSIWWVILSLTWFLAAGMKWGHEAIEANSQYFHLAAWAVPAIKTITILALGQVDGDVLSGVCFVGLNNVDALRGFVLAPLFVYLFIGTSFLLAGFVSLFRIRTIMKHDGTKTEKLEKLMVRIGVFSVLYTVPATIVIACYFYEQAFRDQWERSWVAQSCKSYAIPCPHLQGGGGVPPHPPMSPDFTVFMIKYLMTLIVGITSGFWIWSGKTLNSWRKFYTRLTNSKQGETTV

CSCC[C@H](NC(=O)CNC(=O)[C@H](CCC(=O)O)NC(=O)[C@H](CO)NC(=O)[C@@H](NC(=O)[C@H](CCCCN)NC(=O)[C@H](CC(N)=O)NC(=O)[C@H](CS)NC(C)=O)[C@@H](C)O)C(=O)N[C@@H](CC(=O)O)C(=O)NCC(=O)N[C@@H](CS)C(=O)N[C@@H](CCC(=O)O)C(=O)N[C@@H](CC(C)C)C(N)=O [UM206, Ac-Cys-Asn-Lys-Thr-Ser-Glu-Gly-Met-Asp-Gly-Cys-Glu-Leu-NH2] (Ac-CNKTSEGMDGCEL-NH2)
number of ruptured infarcts (infarct rupture): did not reduce the number of ruptured infarcts | positive and negative dP/dt versus saline (myocardial infarction): higher positive dP/dt and a lower negative dP/dt value | % of inhibition for Fzd-1 (frizzled-1 (rFzd-1); Wnt3a-induced luciferase activity, antagonists at 1.10^−9 M): 72.15% | block of Wnt3a-induced luciferase activity, rFzd-1 (frizzled-1 (rFzd-1); peptide 1.10^−8 M): blocked almost completely; also recorded: abolished the induction of luciferase activity almost completely | infarct area size versus saline (infarct area; 2 and 5 weeks after MI): significantly smaller | thickness of the infarct area versus saline (infarct area; 2 and 5 weeks after MI): significantly thicker | myofibroblast numbers in the infarct area versus saline (infarct area; five weeks post-MI): significantly elevated number | blood vessels in the infarct area versus saline (infarct area; five weeks treatment): increased amount of blood vessels | collagen levels in the infarct area versus saline (infarct area; five weeks treatment): reduced collagen levels | α-SMA levels in infarcts versus saline (infarct area; five-week-old infarcts, qPCR and Western blotting): significantly higher α-SMA levels | myofibroblast numbers in the infarct area versus saline (infarct area; two weeks post-MI): more than four-fold higher; also recorded: four-fold more myofibroblasts
